Test system: mites and insects
Test: Pesticidal activity in a variety of application forms
Format: in vivo
Conditions: diluted aqueous solutions, emulsions with surfactant, or without any solvent
Method: The pesticidal activity was found both in diluted aqueous solutions and in emulsions together with suitable ionic, amphoteric or non-ionic surfactant, or without any solvent.
The pesticidal activity of the silicon esters of the present invention was tested against mites and insects.

CCCCO[Si](OCCCC)(OCCCC)OCCCC [tetrabutyl ortho silicate]
pesticidal activity: high pesticidal activity

Source: patent US20040127363A1, “Pesticidal compositions containing silicon compounds” (priority 2000, published 2004)
